Measured values published in BindingDB's records for doi:10.1038/sj.npp.1300819 (Case Western Reserve University, 2006).
pKi: −log10 of the molar value.

Legend:
[1] = target: 5-hydroxytryptamine receptor 1B (Rattus norvegicus, UniProt P28564)
[2] = target: Alpha-1B adrenergic receptor (Homo sapiens, UniProt P35368)
[3] = target: 5-hydroxytryptamine receptor 2A (Rattus norvegicus, UniProt P14842)
[4] = target: Sodium-dependent noradrenaline transporter (Homo sapiens, UniProt P23975)
[5] = target: Sodium-dependent dopamine transporter (Homo sapiens, UniProt Q01959)
Chain of Sodium-dependent dopamine transporter (Q01959 whole entry): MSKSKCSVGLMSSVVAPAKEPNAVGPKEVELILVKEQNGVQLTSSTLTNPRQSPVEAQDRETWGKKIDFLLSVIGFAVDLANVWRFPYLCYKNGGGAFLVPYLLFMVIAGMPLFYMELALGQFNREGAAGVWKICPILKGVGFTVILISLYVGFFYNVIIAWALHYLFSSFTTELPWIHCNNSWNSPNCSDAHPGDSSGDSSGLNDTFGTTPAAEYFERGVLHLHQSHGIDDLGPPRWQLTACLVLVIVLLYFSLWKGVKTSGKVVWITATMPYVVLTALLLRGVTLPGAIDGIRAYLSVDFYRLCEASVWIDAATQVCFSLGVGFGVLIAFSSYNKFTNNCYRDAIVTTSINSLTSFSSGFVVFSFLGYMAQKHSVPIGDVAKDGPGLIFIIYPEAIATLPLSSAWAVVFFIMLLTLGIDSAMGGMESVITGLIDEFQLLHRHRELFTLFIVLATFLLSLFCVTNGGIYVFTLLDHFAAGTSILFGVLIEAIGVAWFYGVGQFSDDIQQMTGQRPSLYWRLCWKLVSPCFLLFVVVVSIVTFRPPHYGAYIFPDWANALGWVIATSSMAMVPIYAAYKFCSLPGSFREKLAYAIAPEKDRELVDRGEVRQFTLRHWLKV

[6] = target: Alpha-2A adrenergic receptor (Homo sapiens, UniProt P08913)
Chain of Alpha-2A adrenergic receptor (P08913 whole entry): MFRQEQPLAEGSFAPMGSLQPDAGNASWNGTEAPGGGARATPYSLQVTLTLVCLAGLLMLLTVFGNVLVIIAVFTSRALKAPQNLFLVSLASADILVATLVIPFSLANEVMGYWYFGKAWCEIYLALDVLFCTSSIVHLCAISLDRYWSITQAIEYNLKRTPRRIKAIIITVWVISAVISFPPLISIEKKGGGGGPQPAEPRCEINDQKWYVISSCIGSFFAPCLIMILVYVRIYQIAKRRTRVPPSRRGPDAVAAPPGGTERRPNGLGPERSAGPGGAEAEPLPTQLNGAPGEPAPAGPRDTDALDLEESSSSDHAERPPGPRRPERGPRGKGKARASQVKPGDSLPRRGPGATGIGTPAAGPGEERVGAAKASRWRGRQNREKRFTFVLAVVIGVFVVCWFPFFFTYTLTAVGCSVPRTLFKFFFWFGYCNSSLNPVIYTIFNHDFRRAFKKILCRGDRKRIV

[7] = target: 5-hydroxytryptamine receptor 2C (Rattus norvegicus, UniProt P08909)
Chain of 5-hydroxytryptamine receptor 2C (P08909 whole entry): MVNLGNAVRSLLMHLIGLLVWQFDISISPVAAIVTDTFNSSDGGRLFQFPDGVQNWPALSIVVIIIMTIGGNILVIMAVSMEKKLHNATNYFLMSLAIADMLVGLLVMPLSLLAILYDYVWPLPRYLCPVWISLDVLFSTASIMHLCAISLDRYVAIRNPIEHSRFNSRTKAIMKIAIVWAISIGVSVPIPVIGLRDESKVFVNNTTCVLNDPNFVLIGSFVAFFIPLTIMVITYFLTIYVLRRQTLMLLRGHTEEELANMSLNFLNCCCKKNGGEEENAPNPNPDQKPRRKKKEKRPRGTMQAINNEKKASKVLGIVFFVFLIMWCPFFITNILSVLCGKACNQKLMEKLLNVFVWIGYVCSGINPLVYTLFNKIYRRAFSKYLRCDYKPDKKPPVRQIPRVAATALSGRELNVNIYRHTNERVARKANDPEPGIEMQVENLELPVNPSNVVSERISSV

D(1A) dopamine receptor = D(1A) dopamine receptor (Homo sapiens, UniProt P21728)
Chain of D(1A) dopamine receptor (P21728 whole entry): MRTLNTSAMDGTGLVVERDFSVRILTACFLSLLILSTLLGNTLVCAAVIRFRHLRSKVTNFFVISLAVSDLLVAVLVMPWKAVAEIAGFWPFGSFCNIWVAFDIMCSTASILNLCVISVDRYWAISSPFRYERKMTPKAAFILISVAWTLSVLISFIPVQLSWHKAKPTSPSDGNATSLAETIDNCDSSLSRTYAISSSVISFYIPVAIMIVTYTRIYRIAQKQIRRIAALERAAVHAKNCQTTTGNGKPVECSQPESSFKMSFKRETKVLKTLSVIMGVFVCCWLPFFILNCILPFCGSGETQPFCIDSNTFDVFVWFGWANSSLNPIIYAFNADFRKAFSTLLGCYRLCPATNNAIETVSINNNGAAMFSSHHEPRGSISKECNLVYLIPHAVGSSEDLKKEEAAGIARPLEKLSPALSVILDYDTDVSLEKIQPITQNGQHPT

[8] = target: Sodium-dependent serotonin transporter (Homo sapiens, UniProt P31645)
[9] = target: 5-hydroxytryptamine receptor 6 (Homo sapiens, UniProt P50406)
Chain of 5-hydroxytryptamine receptor 6 (P50406 whole entry): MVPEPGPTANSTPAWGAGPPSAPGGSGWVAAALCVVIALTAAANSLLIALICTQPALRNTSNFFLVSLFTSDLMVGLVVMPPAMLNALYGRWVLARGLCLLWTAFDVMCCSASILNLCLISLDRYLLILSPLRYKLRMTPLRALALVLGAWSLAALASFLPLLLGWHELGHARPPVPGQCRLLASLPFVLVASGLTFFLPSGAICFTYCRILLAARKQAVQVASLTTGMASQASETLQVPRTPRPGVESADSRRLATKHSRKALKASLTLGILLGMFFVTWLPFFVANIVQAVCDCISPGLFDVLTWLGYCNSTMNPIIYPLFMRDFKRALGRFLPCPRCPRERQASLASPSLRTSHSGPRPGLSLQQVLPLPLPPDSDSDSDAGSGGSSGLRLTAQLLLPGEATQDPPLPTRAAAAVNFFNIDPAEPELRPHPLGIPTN

[10] = target: 5-hydroxytryptamine receptor 2B (Homo sapiens, UniProt P41595)
D(1B) dopamine receptor = D(1B) dopamine receptor (Homo sapiens, UniProt P21918)
[11] = target: Alpha-2C adrenergic receptor (Homo sapiens, UniProt P18825)
Chain of Alpha-2C adrenergic receptor (P18825 whole entry): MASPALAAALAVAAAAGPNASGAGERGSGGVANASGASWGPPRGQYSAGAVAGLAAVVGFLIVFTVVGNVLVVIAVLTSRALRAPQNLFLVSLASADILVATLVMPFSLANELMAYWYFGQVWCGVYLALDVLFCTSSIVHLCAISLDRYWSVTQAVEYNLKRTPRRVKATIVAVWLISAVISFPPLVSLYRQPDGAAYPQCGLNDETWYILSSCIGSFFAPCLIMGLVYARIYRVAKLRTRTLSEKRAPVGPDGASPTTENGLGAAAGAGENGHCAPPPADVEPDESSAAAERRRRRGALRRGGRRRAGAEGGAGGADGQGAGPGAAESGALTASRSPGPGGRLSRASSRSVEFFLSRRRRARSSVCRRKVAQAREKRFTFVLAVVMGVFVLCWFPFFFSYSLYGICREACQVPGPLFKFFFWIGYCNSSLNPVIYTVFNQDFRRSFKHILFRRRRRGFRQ

Histamine H1 receptor = Histamine H1 receptor (Homo sapiens, UniProt P35367)
D(4) dopamine receptor = D(4) dopamine receptor (Homo sapiens, UniProt P21917)
[12] = target: Alpha-1A adrenergic receptor (Homo sapiens, UniProt P35348)
[13] = target: 5-hydroxytryptamine receptor 1A (Homo sapiens, UniProt P08908)
Chain of 5-hydroxytryptamine receptor 1A (P08908 whole entry): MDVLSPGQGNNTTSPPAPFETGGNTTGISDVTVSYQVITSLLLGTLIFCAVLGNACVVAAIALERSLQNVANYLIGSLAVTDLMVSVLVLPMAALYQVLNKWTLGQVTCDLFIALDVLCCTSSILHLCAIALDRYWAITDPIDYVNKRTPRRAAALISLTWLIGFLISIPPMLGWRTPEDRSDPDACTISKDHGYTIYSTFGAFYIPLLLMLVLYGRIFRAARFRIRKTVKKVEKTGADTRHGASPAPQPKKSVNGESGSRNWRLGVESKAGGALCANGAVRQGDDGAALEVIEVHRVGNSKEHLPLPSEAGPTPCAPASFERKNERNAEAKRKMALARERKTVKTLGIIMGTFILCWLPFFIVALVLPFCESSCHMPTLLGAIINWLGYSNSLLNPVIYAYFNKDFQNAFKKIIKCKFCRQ

[14] = target: Muscarinic acetylcholine receptor M5 (Homo sapiens, UniProt P08912)
D(3) dopamine receptor = D(3) dopamine receptor (Rattus norvegicus, UniProt P19020)
[15] = target: Muscarinic acetylcholine receptor M4 (Homo sapiens, UniProt P08173)
[16] = target: Muscarinic acetylcholine receptor M2 (Homo sapiens, UniProt P08172)
[17] = target: Muscarinic acetylcholine receptor M3 (Homo sapiens, UniProt P20309)
[18] = target: Muscarinic acetylcholine receptor M1 (Homo sapiens, UniProt P11229)
[19] = target: 5-hydroxytryptamine receptor 5A (Homo sapiens, UniProt P47898)

Chain of 5-hydroxytryptamine receptor 2A (P14842 whole entry): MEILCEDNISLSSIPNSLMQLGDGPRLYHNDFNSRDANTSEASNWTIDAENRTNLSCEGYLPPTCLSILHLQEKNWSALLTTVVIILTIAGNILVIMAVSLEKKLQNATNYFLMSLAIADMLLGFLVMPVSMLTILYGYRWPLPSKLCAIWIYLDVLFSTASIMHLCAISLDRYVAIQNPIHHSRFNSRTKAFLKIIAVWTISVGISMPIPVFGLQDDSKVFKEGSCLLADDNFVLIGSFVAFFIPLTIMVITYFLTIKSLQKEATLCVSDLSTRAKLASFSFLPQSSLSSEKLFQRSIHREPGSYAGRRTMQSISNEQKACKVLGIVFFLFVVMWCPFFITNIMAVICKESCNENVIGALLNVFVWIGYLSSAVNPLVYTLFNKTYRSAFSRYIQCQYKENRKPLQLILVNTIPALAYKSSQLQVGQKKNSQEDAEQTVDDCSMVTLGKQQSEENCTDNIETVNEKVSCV
Chain of 5-hydroxytryptamine receptor 1B (P28564 whole entry): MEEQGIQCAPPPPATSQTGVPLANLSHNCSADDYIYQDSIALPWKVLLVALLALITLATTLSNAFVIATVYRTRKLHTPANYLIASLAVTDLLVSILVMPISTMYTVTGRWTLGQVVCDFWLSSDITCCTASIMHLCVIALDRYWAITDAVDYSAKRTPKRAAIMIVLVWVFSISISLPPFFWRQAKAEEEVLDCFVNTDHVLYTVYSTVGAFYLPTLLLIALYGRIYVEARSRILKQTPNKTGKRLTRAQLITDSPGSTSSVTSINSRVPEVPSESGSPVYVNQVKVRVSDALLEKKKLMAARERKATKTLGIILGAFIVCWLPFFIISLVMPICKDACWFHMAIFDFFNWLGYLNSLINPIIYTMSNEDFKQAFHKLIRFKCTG
Chain of Sodium-dependent noradrenaline transporter (P23975 whole entry): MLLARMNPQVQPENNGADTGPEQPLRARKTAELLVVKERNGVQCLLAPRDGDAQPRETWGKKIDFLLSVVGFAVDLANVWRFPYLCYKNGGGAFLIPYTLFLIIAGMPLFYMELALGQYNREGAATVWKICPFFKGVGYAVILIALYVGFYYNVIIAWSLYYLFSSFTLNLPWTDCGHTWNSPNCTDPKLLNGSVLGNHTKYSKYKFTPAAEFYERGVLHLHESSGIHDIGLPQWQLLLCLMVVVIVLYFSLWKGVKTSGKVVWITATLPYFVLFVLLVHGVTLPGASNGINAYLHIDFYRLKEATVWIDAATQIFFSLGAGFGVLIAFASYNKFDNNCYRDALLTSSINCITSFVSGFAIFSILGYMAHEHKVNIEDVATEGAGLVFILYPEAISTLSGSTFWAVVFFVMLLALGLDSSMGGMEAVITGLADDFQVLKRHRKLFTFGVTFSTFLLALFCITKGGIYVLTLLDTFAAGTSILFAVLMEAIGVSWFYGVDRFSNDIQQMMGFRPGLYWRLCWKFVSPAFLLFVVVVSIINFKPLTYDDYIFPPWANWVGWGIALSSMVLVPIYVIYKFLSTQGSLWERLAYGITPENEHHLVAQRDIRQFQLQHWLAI

OC(c1ccccc1)C1CCN(CCc2ccccc2)CC1 (centres undefined) [MDL-11939]
pKi [1]: 7.15 | pKi [2]: 5.80 | pKi [3]: 8.54 | pKi [4]: < 5.00 | pKi [5]: < 5.00 | pKi [6]: 5.80 | pKi [7]: 6.07 | pKi (D(1A) dopamine receptor): 6.49 | pKi [8]: 5.59 | pKi [9]: 5.56 | pKi [10]: 5.85 | pKi (D(1B) dopamine receptor): 5.54 | pKi [11]: 5.93 | pKi (Histamine H1 receptor): 5.79 | pKi (D(4) dopamine receptor): 5.41 | pKi [12]: 5.73 | pKi [13]: 5.47

CN(C)CCON=C(C=Cc1ccc(O)cc1)c1ccccc1F [NSC_6438382]
pKi [14]: 5.52 | pKi [1]: 6.04 | pKi (D(3) dopamine receptor): < 5.00 | pKi [3]: 9.02 | pKi [4]: 6.13 | pKi [5]: 5.25 | pKi [6]: 6.14 | pKi [15]: 5.44 | pKi [7]: 8.08 | pKi [16]: < 5.00 | pKi (D(1A) dopamine receptor): < 5.00 | pKi [9]: 5.41 | pKi [17]: 5.62 | pKi [18]: 6.14 | pKi [11]: 5.67 | pKi [13]: 5.60 | pKi [19]: 5.76
